This note sets out measurements from ChEMBL document CHEMBL4842352, “Novel diarylamides and diarylureas with N-substitution dependent activity against medulloblastoma” (Eur J Med Chem, 2021).

The source made the active and inactive calls. The rule behind the calls is not given here. Where only a bound is given, the exact number is not on record here.

Assay [1] relates to ONS-76. The assay can be described thus: Cytotoxicity against human ONS-76 cells assessed as reduction in cell viability incubated for 72 hrs by MTT assay. Conditions: ONS-76, 72 h. The format is functional, cell-based. A general note: Tetrazolium dyes change colour on reduction, which living cells bring about.
Assay [2] deals with Daoy. The assay can be described thus: Cytotoxicity against human DAOY cells assessed as reduction in cell viability incubated for 72 hrs by MTT assay. The format is functional, cell-based.
For assay [3], the target named is Vascular endothelial growth factor receptor 2 (Homo sapiens) (UniProt P35968). In words: Inhibition of VEGFR2 (unknown origin) at 100 uM.
Vascular endothelial growth factor receptor 2 (Homo sapiens), sequence (P35968 whole entry): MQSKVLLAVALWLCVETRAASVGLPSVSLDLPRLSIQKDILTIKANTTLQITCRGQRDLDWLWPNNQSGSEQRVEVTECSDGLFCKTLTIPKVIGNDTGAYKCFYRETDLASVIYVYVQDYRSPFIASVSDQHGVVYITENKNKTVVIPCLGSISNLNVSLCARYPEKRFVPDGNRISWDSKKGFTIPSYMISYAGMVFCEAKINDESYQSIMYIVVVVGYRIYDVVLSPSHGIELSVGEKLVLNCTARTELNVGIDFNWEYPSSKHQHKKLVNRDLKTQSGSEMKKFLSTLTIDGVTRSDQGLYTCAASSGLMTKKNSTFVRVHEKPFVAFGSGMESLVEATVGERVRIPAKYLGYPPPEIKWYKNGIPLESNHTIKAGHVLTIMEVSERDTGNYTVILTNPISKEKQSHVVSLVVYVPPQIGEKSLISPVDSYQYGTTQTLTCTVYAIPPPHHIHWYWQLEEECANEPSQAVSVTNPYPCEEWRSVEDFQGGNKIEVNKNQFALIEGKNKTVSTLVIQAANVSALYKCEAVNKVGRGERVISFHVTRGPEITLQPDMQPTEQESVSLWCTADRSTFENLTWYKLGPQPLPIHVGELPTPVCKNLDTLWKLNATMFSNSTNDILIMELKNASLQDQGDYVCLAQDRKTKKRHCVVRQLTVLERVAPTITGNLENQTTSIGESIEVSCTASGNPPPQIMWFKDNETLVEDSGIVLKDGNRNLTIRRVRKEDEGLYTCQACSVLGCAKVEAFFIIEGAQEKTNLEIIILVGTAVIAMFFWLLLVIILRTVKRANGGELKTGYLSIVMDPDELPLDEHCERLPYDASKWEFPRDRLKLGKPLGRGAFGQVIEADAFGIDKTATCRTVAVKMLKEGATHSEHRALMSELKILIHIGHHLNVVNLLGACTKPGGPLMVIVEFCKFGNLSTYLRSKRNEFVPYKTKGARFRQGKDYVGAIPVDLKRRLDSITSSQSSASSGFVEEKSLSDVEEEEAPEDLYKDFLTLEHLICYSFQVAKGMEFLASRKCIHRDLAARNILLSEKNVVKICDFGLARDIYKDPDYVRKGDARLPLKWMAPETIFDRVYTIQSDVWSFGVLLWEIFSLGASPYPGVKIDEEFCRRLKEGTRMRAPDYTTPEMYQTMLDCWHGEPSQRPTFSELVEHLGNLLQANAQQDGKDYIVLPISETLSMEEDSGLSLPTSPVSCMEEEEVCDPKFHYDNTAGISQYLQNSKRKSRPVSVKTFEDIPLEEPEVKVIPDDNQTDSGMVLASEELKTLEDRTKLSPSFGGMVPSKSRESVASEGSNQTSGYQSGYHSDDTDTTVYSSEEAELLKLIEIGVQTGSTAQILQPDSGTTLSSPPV
Assay [4] has as its target T1, Aurora kinase A (Homo sapiens) (UniProt O14965).
T1 sequence (whole entry): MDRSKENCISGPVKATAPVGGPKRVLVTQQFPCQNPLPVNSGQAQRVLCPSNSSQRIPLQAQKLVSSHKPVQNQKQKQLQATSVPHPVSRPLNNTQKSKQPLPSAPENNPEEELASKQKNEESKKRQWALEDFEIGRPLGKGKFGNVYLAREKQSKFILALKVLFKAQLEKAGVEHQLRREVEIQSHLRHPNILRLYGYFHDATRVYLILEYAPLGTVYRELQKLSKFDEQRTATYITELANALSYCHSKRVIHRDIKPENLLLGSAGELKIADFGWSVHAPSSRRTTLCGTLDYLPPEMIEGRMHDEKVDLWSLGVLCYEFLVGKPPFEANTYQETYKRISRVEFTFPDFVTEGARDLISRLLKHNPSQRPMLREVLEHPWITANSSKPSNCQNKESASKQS
In words: Inhibition of Aurora A (unknown origin) at 100 uM relative to control.

Assay [5] deals with ONS-76. In words: Potency index, ratio of 1-(naphthalen-1-yl)-3-(3,4,5-trimethoxyphenyl)urea IC50 to test compound IC50 for cytotoxicity against human ONS-76 cells assessed as reduction in cell viability incubated for 72 hrs by MTT assay. The format is functional.
For assay [6], the target named is Cyclin-dependent kinase 2 (Homo sapiens) (UniProt P24941). The assay can be described thus: Inhibition of CDK2 (unknown origin) at 100 uM.
Assay [7] relates to Daoy. The assay can be described thus: Potency index, ratio of 1-(naphthalen-1-yl)-3-(3,4,5-trimethoxyphenyl)urea IC50 to test compound IC50 for cytotoxicity against human DAOY cells assessed as reduction in cell viability incubated for 72 hrs by MTT assay. The format is functional.
Assay [8] deals with Insulin-like growth factor 1 receptor (Homo sapiens) (UniProt P08069). In words: Inhibition of IGF-1R (unknown origin) at 100 uM.
Insulin-like growth factor 1 receptor (Homo sapiens), sequence (P08069 31-736 limits assumed): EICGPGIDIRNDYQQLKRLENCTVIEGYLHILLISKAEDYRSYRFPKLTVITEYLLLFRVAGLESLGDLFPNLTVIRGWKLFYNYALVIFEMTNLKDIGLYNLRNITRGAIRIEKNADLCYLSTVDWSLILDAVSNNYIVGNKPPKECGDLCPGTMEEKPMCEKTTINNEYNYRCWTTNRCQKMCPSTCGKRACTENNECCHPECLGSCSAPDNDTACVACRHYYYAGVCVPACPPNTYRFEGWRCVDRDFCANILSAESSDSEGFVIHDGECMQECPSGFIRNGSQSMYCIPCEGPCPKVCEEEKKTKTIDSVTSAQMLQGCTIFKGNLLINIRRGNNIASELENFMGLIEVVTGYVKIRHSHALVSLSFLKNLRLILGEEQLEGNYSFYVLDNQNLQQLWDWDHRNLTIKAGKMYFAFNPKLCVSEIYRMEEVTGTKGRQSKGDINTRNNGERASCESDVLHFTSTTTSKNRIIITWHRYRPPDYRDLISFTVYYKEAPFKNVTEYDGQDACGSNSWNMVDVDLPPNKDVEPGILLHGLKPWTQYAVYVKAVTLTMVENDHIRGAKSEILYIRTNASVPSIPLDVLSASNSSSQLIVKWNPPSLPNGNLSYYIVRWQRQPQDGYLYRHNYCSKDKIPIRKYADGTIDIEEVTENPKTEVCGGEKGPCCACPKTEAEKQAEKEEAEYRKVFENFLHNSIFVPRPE
Insulin-like growth factor 1 receptor (Homo sapiens), sequence (P08069 741-1367 limits assumed): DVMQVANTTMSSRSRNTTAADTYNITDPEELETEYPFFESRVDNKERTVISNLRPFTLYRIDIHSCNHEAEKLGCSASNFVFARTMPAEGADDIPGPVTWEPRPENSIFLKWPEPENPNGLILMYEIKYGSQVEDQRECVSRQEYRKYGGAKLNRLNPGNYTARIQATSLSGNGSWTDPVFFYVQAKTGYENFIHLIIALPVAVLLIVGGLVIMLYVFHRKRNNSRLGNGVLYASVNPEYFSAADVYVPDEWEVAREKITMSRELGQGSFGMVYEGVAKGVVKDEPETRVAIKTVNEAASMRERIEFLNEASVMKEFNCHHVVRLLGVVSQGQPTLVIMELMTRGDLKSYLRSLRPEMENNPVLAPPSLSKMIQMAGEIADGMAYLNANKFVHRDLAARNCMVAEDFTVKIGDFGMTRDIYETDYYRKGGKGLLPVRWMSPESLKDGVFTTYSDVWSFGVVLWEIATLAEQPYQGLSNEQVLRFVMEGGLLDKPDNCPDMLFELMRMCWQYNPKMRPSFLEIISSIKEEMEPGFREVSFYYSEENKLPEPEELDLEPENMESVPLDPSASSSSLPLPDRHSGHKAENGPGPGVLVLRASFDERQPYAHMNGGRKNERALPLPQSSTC

Turning to `COc1cc(N(C)C(=O)c2ccc([N+](=O)[O-])cc2)cc(OC)c1OC`, the 50% inhibitory concentration (IC50) in the assay with ONS-76 [1] and in the assay on Daoy [2] was not below 125 µM throughout.

For the molecule `COc1cc(N(C)C(=O)c2cccc(F)c2)cc(OC)c1OC`, the 50% inhibitory concentration (IC50) with ONS-76 [1] and in the assay with Daoy [2] was not below 125 µM in each case.

For the molecule `COc1cc(NC(=O)c2cccc(F)c2)cc(OC)c1OC`, the IC50 with ONS-76 [1] and in the assay on Daoy [2] was not below 125 µM in each case.

Consider `COc1cc(NC(=O)Nc2ccc(O)c3ccccc23)cc(OC)c1OC`, for which the IC50 in the assay with ONS-76 [1] came to 2.5 µM; with Daoy [2] it was 0.1 µM. Moreover, the inhibition result in assay [3], in assay [6] and in assay [8] was “inactive” each time. Further, in assay [4], the inhibition stood at 30%. The “Ratio IC50” value in the assay with ONS-76 [5] is recorded as 0.98; in the assay with Daoy [7], 58.4.

On to `COc1cc(NC(=O)c2ccc([N+](=O)[O-])cc2)cc(OC)c1OC`, for which the IC50 with ONS-76 [1] was not below 125 µM; with Daoy [2] it was 52.9 µM.

Consider `COc1ccc(C(=O)N(C)c2cc(OC)c(OC)c(OC)c2)cc1`, for which the IC50 in the assay with ONS-76 [1] and in the assay on Daoy [2] was not below 125 µM throughout.

In the case of `COc1cc(NC(=O)Nc2ccc(F)cc2)cc(OC)c1OC`, the figures for the IC50 in the assay on ONS-76 [1] and in the assay with Daoy [2] were 63.2 µM and 104 µM, respectively.

For `COc1cc(NC(=O)Nc2cccc3c2CCC3)cc(OC)c1OC`, the IC50 with ONS-76 [1] was not below 125 µM; in the assay on Daoy [2], 0.47 µM. The “Ratio IC50” value with Daoy [7] stood at 12.4.

For the molecule `COc1cc(NC(=O)Nc2cccc3cc4ccccc4cc23)cc(OC)c1OC`, the IC50 with ONS-76 [1] stood at 10 µM; in the assay on Daoy [2], 1.25 µM. Further, the “Ratio IC50” value is given as 0.25 in the assay on ONS-76 [5] and 4.7 in the assay on Daoy [7].

As for `COc1cc(NC(=O)Nc2cccc3cc[nH]c23)cc(OC)c1OC`, the IC50 with ONS-76 [1] and in the assay with Daoy [2] was not below 125 µM throughout.

Take `COc1cc(NC(=O)Nc2cccc3ncccc23)cc(OC)c1OC`: the values for the IC50 with ONS-76 [1] and in the assay on Daoy [2] were not below 125 µM and 4 µM, respectively. The “Ratio IC50” value with Daoy [7] was determined as 1.5.

`COc1cc(NC(=O)Nc2cccc3ccccc23)cc(OC)c1OC`: the concentration for half-maximal inhibition (IC50) in the assay with ONS-76 [1] came to 2.45 µM; in the assay on Daoy [2] it was 5.84 µM.

Take `COc1cc(NC(=O)c2cccc([N+](=O)[O-])c2)cc(OC)c1OC`: the IC50 in the assay on ONS-76 [1] and with Daoy [2] was not below 125 µM throughout.

As for `COc1cc(NC(=O)Nc2ccc3c(ccn3C)c2)cc(OC)c1OC`, the figures for the half-maximal inhibitory concentration (IC50) with ONS-76 [1] and with Daoy [2] were not below 125 µM and 0.16 µM, respectively. Also, in the assay with Daoy [7], the “Ratio IC50” value was 36.5.

`COc1cc(N(C)C(=O)c2cccc([N+](=O)[O-])c2)cc(OC)c1OC`: the IC50 with ONS-76 [1] and in the assay with Daoy [2] was not below 125 µM each time.

`COc1cc(N(C)C(=O)N(C)c2cccc(F)c2)cc(OC)c1OC`: the IC50 with ONS-76 [1] and in the assay with Daoy [2] was not below 125 µM in each case.

For the molecule `COc1ccc(C(=O)Nc2cc(OC)c(OC)c(OC)c2)cc1`, the IC50 in the assay with ONS-76 [1] and in the assay with Daoy [2] was not below 125 µM each time.

`COc1ccc(N(C)C(=O)N(C)c2cc(OC)c(OC)c(OC)c2)cc1`: the IC50 in the assay on ONS-76 [1] and with Daoy [2] was not below 125 µM each time.

Consider `COc1cc(N(C)C(=O)c2ccc(F)cc2)cc(OC)c1OC`, for which the IC50 in the assay with ONS-76 [1] and in the assay with Daoy [2] was not below 125 µM in each case.

Turning to `COc1cc(N(C)C(=O)N(C)c2ccc(F)cc2)cc(OC)c1OC`, the IC50 in the assay on ONS-76 [1] and with Daoy [2] was not below 125 µM each time.

Regarding `COc1cc(NC(=O)c2ccc(F)cc2)cc(OC)c1OC`, the IC50 with ONS-76 [1] and in the assay on Daoy [2] was not below 125 µM throughout.

Consider `COc1cc(NC(=O)Nc2c3ccccc3cc3ccccc23)cc(OC)c1OC`, for which the IC50 in the assay with ONS-76 [1] was 10 µM; in the assay with Daoy [2] it was not below 125 µM. Also, in the assay on ONS-76 [5], the “Ratio IC50” value is reported as 0.25.

Take `COc1cc(NC(=O)Nc2cccc3cc(O)ccc23)cc(OC)c1OC`: the half-inhibitory concentration (IC50) with ONS-76 [1] and with Daoy [2] was not below 125 µM in each case.

On to `COc1cc(NC(=O)Nc2cccc(F)c2)cc(OC)c1OC`, for which the IC50 turned out to be 65.5 µM with ONS-76 [1] and 111 µM with Daoy [2].

`COc1ccc(NC(=O)Nc2cc(OC)c(OC)c(OC)c2)cc1`: the results for the IC50 with ONS-76 [1] and in the assay on Daoy [2] were 12.9 µM and 14.8 µM, respectively.

Turning to `COc1cc(N(C)C(=O)c2cccc3ccccc23)cc(OC)c1OC`, the figures for the IC50 in the assay with ONS-76 [1] and with Daoy [2] were 65.7 µM and not below 125 µM, respectively.

Regarding `COc1cc(N(C)C(=O)N(C)c2ccc([N+](=O)[O-])cc2)cc(OC)c1OC`, the IC50 in the assay on ONS-76 [1] and with Daoy [2] was not below 125 µM throughout.

In the case of `COc1cc(N(C)C(=O)c2ccccc2)cc(OC)c1OC`, the IC50 in the assay with ONS-76 [1] and with Daoy [2] was not below 125 µM throughout.

Consider `COc1cc(N(C)C(=O)N(C)c2cccc3ccccc23)cc(OC)c1OC`, for which the IC50 with ONS-76 [1] and with Daoy [2] was not below 125 µM in each case.

Take `COc1cc(NC(=O)c2ccccc2)cc(OC)c1OC`: the IC50 with ONS-76 [1] and in the assay with Daoy [2] was not below 125 µM each time.

For the molecule `COc1cc(NC(=O)c2cccc3ccccc23)cc(OC)c1OC`, the 50% inhibitory concentration (IC50) is 26.8 µM in the assay on ONS-76 [1] and 48.7 µM in the assay with Daoy [2].

On to `COc1cc(N(C)C(=O)N(C)c2cccc([N+](=O)[O-])c2)cc(OC)c1OC`, for which the IC50 in the assay with ONS-76 [1] and in the assay with Daoy [2] was not below 125 µM throughout.

Turning to `COc1cc(NC(=O)Nc2cccc([N+](=O)[O-])c2)cc(OC)c1OC`, the IC50 was found to be 79.6 µM in the assay on ONS-76 [1] and 82.5 µM in the assay with Daoy [2].

`COc1cc(NC(=O)Nc2ccc([N+](=O)[O-])cc2)cc(OC)c1OC`: the IC50 in the assay on ONS-76 [1] amounted to 35 µM; in the assay with Daoy [2] it was 70.8 µM.

One may read the IC50 as the midpoint of a concentration-inhibition curve. By inhibition is commonly meant the percentage by which the read-out fell short of the control.
